Source: article PMC5945515, “Measuring glucocorticoid receptor expression in vivo with PET” (Oncotarget, 2018)
pKd: −log10 of the molar value. Where two headings read alike, the source gives them in different places. One block for each compound: values may come before it.

Columns and labels:
GR = conditions: cited from earlier work
[1] = cited from earlier work
human GR = target: T1, human GR (Homo sapiens, UniProt P04150); experiment: Competition binding assay on cells, human GR; conditions: Supplementary Table 1; read-out: KD for human GR
T1 construct: PC3 and DU145, two human prostate cancer models with endogenous GR expression; endogenous in cells; host or cells: DU145
T1 sequence (P04150 1-777): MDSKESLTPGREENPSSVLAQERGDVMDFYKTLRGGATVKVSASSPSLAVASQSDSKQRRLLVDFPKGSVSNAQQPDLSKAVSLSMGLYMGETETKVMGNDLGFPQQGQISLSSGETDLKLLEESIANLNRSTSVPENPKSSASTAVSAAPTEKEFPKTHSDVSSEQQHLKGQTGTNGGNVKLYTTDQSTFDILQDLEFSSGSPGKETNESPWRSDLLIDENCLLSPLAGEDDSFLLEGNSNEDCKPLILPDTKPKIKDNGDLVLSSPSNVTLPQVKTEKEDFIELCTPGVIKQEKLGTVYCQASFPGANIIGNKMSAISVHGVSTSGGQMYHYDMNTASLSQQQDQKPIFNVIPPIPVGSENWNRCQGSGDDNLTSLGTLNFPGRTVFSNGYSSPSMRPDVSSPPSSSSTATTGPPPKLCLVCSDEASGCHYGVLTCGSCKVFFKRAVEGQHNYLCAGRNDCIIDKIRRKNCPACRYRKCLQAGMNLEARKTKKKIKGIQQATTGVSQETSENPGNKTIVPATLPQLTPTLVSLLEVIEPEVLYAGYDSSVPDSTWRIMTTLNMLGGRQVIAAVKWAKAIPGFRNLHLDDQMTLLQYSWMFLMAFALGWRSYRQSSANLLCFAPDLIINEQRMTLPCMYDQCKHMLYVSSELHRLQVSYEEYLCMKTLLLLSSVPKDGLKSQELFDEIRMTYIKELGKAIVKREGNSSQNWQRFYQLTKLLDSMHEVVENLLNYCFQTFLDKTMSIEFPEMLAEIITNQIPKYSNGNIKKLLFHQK
Description: The KD for subfamily 3 group C nuclear hormone receptors was determined on cells by displacing ^3H-steroidal agonists for the respective receptor.
The cold ligands and ^3H-steroids were co-incubated on cells in PBS at room temperature for one hour. Following incubation, the cells were washed twice with ice cold PBS and the unbound activity was retained for analysis. The cells were lysed with 1 mL of 1 M NaOH and collected. Bound and unbound fractions were counted in a liquid scintillation counter and expressed as a percentage of the total activity added per equal relative number of cells. […] The specific binding component was plotted against the log of the competing ligand and curve fit using a non-linear regression algorithm with PRISM software.

[2] = PET/CT and biodistribution in tumor naive C57BL6/J mice; type: in vivo, mouse
[3] = Log P determination (octanol:water); type: physicochemical
Description: To a microcentrifuge tube containing 1 mL of octanol:water (1:1 v/v) was added 50 μL of ^18F-GR02 (total activity = 37 MBq). The solution was vortexed vigorously for 30 sec, and the biphasic layers were allowed to separate. The layers were manually pipetted into new microcentrifuge tubes, and the activity of each fraction was read with a dose calibrator. The water fraction contained 1.7 MBq, and the octanol fraction contained 35.3 MBq.

[4] = PET/CT and biodistribution in tumor naive C57BL6/J mice; type: in vivo, mouse; remark: listed apart in the source
Description: All radiotracers were administered via tail vein injection in < 300 μL PBS. Intact male C57BL6/J or nu/nu mice were treated with vehicle or mife. (25 mg/kg) via oral gavage for four days prior to injection with ∼11 MBq of ^18F-GR02. Mice were anesthetized and imaged with a Siemens Inveon small animal PET/CT at dedicated time points post injection. Each mouse was imaged until 20 million coincident events were collected. All imaging data was reconstructed, decay corrected, and analyzed with AMIDE or ASIPro software. Maximum intensity projections were generated with ASIPro software. ASIPro software was also used to draw manual two dimensional regions of interest to calculate SUV data for static or dynamic acquisitions.
(§1) At dedicated time points post injection, mice were humanely euthanized with CO2 (g) asphyxiation and blood and tissues were removed, washed, dried and weighed. The activity associated with each tissue was measured with a gamma counter. The data was decay corrected and expressed as a percentage of the injected dose per gram of tissue with PRISM software.

subcutaneous PC3 tumors = experiment: Biodistribution in mice bearing subcutaneous PC3 tumors; type: in vivo, mouse; conditions: one hour post injection
Description: (§2) All animal experiments were conducted with prior approval from IACUC at UCSF. Five to seven week old male nu/nu, intact or adx C57BL6/J mice were purchased from Charles River. Adx mice were provided drinking water supplemented with 0.9% NaCl (aq.). Male nu/nu mice received a subcutaneous bolus of 1 × 10^7 PC3 or DU145 cells in Matrigel and growth media (1:1 v/v) in the flank for tumor imaging studies with ^18F-GR02. For subrenal capsule tumor implants, 4–6 week old male Rag2 knockout mice (Taconic Farms) were placed under anesthesia with ∼2% isoflurane. A half centimeter dorsal midline incision was performed, and one kidney was gently pulled though the incision by applying pressure to the muscle wall. The kidney capsule was lifted from the parenchyma of the kidney, and PC3 cells (5 × 10^6 in 50 μL PBS) were injected into the pocket under the capsule. […]
(§3) All radiotracers were administered via tail vein injection in < 300 μL PBS. […] All imaging data was reconstructed, decay corrected, and analyzed with AMIDE or ASIPro software. […]
as §1

[5] = system: subcutaneous DU145 tumors; experiment: Biodistribution in mice bearing subcutaneous DU145 tumors; type: in vivo, mouse; conditions: one hour post injection
Description: as §2, §3, §1

[6] = system: subrenal capsule PC3 tumors; experiment: Biodistribution in mice bearing subrenal capsule PC3 tumors; type: in vivo, mouse
Description: All animal experiments were conducted with prior approval from IACUC at UCSF. Five to seven week old male nu/nu, intact or adx C57BL6/J mice were purchased from Charles River. Adx mice were provided drinking water supplemented with 0.9% NaCl (aq.). Male nu/nu mice received a subcutaneous bolus of 1 × 10^7 PC3 or DU145 cells in Matrigel and growth media (1:1 v/v) in the flank for tumor imaging studies with ^18F-GR02. For subrenal capsule tumor implants, 4–6 week old male Rag2 knockout mice (Taconic Farms) were placed under anesthesia with ∼2% isoflurane. A half centimeter dorsal midline incision was performed, and one kidney was gently pulled though the incision by applying pressure to the muscle wall. The kidney capsule was lifted from the parenchyma of the kidney, and PC3 cells (5 × 10^6 in 50 μL PBS) were injected into the pocket under the capsule. The kidney was placed back and the skin incision was closed using 3 surgical sutures. The mice were treated once with Carprofen (5–10 mg/kg) to ease recovery. Mice were observed over 24 hours for signs of post-operative pain, bleeding and/or other complications. Tumor progression was followed for 7–14 days after surgery with a 14 T Agilent small animal MRI to identify tumors of suitable size to conduct the biodistribution study.
as §1

[7] = octanol:water 1:1, total activity 37 MBq
[8] = mouse intact, 60 minutes post injection
[9] = intact male nu/nu mice, vehicle
[10] = mouse adrenalectomized, 60 minutes post injection

Compound: CC1(C)O[C@@H]2C[C@H]3[C@@H]4CCC5=CC(=O)C=C[C@]5(C)[C@@]4(F)[C@@H](O)C[C@]3(C)[C@]2(C(=O)CF)O1 [21-[18F]-deoxytriamcinolone acetonide]
- pKd (GR; ref PMID 1526811): 8.68

Compound: CC12C=CC(=O)C=C1CCC1C2C(=O)CC2(C)C1CCC2(O)C(=O)C[18F] (stereo not drawn) [21-[18F]-prednisone]
- logP o/w ([1]; ref PMID 3495649): 2.1

Compound: C=CCC1Oc2cccc(OC)c2-c2ccc3c(c21)C(C)=CC(C)(C)N3 (stereo not drawn) [[11 C]-Al-438]
- pKd (GR; ref PMID 17499506): 8.09

Compound: C=CCC1Oc2cccc(O[11CH3])c2-c2ccc3c(c21)C(C)=CC(C)(C)N3 (stereo not drawn) [[11 C]-Al-438]
- logP o/w ([1]; ref PMID 17499506): 6.13

- pKd (human GR): 8.42
Compound: CC12C=CC(=O)C=C1CCC1C2C(O)CC2(C)C1CCC2(O)C(=O)COCCCF (stereo not drawn) [^18F-GR01]

- bone associated activity ([2]; intact male C57BL6/J mice, 60 minutes post injection): ~20 % ID/g
Compound: CC12C=CC(=O)C=C1CCC1C2C(O)CC2(C)C1CCC2(O)C(=O)COCCC[18F] (stereo not drawn) [^18F-GR01]

- pKd (human GR): 7.80
Compound: CC12C=CC(=O)C=C1CCC1C2C(O)CC2(C)C1CCC2(O)C(=O)CNC(=O)c1ccc(F)cc1 (stereo not drawn) [^18F-GR02]

- activity in the octanol fraction [3, 7]: 35.3 MBq
- activity in the water fraction [3, 7]: 1.7 MBq
- log P (o/w) ([3]; octanol:water 1:1 v/v): 1.33
- fold higher specific binding in liver vs prior GR-targeted radiotracers ([4]; compared with literature data of Supplementary Table 2): 3–10 fold
- Bone [4, 8]: 0.28 ± 0.1 % ID/g
- Brain [4, 8]: 0.06 ± 0.02 % ID/g
- Heart [4, 8]: 0.81 ± 0.5 % ID/g
- Lung [4, 8]: 0.64 ± 0.4 % ID/g
- Spleen [4, 8]: 0.63 ± 0.1 % ID/g
- uptake in subcutaneous PC3 tumors after mife. (subcutaneous PC3 tumors; four days prior mife. 25 mg/kg): 0.18 ± 0.07 % ID/g
- uptake in subcutaneous PC3 tumors (subcutaneous PC3 tumors; [9]): 0.37 ± 0.1 % ID/g
- uptake in subcutaneous DU145 tumors after mife. ([5]; four days prior mife. 25 mg/kg): 0.23 ± 0.09 % ID/g
- uptake in subcutaneous DU145 tumors [5, 9]: 0.45 ± 0.2 % ID/g
- fold higher uptake in renal capsule tumor vs subcutaneous PC3 tumor ([6]; mouse, in vivo, sc): ~16 fold
- uptake in renal capsule PC3 tumor after mife. ([6]; pretreatment with mife. 25 mg/kg, 60 minutes post injection): 2.84 ± 1.8 % ID/g
- uptake in renal capsule PC3 tumor ([6]; vehicle, 60 minutes post injection): 6.24 ± 1.0 % ID/g
- uptake in the brain across the treatment arms ([2]; C57BL6/J mice, intact/adx, vehicle/mife., 60 min post injection): 0.05–0.2 % ID/g
- Blood [2, 10]: 2.36 ± 1.6 % ID/g
- Bone [2, 10]: 1.25 ± 0.8 % ID/g
- Brain [2, 10]: 0.17 ± 0.05 % ID/g
- Heart [2, 10]: 2.39 ± 0.6 % ID/g
- Kidney [2, 10]: 13.42 ± 3.1 % ID/g
- Liver [2, 10]: 21.83 ± 3.3 % ID/g
- Lung [2, 10]: 2.15 ± 1.0 % ID/g
- Muscle [2, 10]: 1.15 ± 0.4 % ID/g
- Spleen [2, 10]: 1.41 ± 0.6 % ID/g
- Stomach [2, 10]: 5.54 ± 2.4 % ID/g
- Blood [2, 8]: 0.83 ± 0.3 % ID/g
- Kidney [2, 8]: 3.96 ± 1.9 % ID/g
- Liver [2, 8]: 7.98 ± 1.5 % ID/g
- Muscle [2, 8]: 0.36 ± 0.3 % ID/g
- Stomach [2, 8]: 0.62 ± 0.1 % ID/g
- time of peak accumulation in the liver post injection ([2]; one hour dynamic PET scan, intact male C57BL6/J mouse): ≤ 10 min
Compound: CC12C=CC(=O)C=C1CCC1C2C(O)CC2(C)C1CCC2(O)C(=O)CNC(=O)c1ccc([18F])cc1 (stereo not drawn) [^18F-GR02]

Compound: CC#C[C@]1(O)CC[C@H]2[C@@H]3CCC4=CC(=O)CCC4=C3[C@@H](c3ccc(N(C)C)cc3)C[C@@]21C [mife., mifepristone, reference compound]
- effect on 18F-GR02 uptake in liver, spleen, small intestine and stomach ([4]; intact C57BL6/J mice, 25 mg/kg daily oral gavage for four days, one hour post injection): statistically significant suppression
- effect on 18F-GR02 uptake in several tissues, including liver, kidney and stomach ([2]; adx C57BL6/J mice, mife. pretreatment): suppressed ^18F-GR02 uptake to a statistically significant extent
